Experimental data taken from patent publication US11952582B2, “Herbicide-resistance gene and application thereof in plant breeding” (priority 2017, dated 2024).

Legend:
[1] = biological target: PaHPPD-SDM (Pseudomonas aeruginosa, UniProt Q9I576, A156V/E349K/R282S); details: higher doses in the range 0-60 of herbicide
From the text: Specifically, the presence of tyrosine aminotransferase in E. coli DH5a can catalyze the production of p-hydroxyphenylpyruvate (4-HPP) from tyrosine, which is used as a substrate for HPPD to produce homogentisic acid (HGA). After further oxidation and polymerization, a brown substance is produced. The addition of HPPD inhibitors will inhibit this reaction, thereby reducing the production of pigment. Therefore, the gradation of pigment can be used as an inhibition index of HPPD activity. […] Through heterologous expression of HPPD mutant genes from different species in E. coli DH5α, the resistance characteristics of E. coli DH5α-mutated gene to triketone herbicides were analyzed by detecting the absorption value of pigment at 405 nm (FIGS. 2-6, 8 and 9).
The PaHPPD mutants obtained by random mutation was cloned into E. coli cells together with wild-type PaHPPD and AtHPPD for comparation and screening.
The bacteria solution shaking cultured overnight at 37° C. was centrifuged, and 200 μL of supernatant was transferred to a sterile 96-well plate (microplate with high throughput characteristics) using a 200 μL pipette on an ultra-clean workbench. The pigment content was measured with a microtiter plate reader at a wavelength of 405 nm (OD405 nm), and the HPPD activity was evaluated according to the size of the OD value.
Then the obtained PaHPPD-SDM mutant was compared with its parental mutants (PaHPPD-M3, PaHPPD-DS18, and PaHPPD-DS73) to understand their ability of brown pigmentation in the presence of triketone herbicides at different doses (0-60 μM). The calculation formula of HPPD activity (%) is as follows: HPPD activity(%)=(Am/Ac)×100
Wherein Am refers to the average value of the absorbance at a specific herbicide dose, and Ac refers to the average value of the absorbance without the herbicide.

[2] = test system: Arabidopsis WT (Col0), OE At, OE Pa, OE M3 lines; test: Arabidopsis seed germination test on herbicide-containing 1/2 MS medium; format: in vivo, Arabidopsis thaliana; details: 2 weeks
Procedure: In order to evaluate the resistance of different HPPD overexpression lines to herbicides, Arabidopsis seed germination tests were performed on media containing different concentrations of herbicides. T3 generation Arabidopsis seeds and Co10 (WT) seeds were performed steam surface sterilization (concentrated HCl: NaClO=1:5, v/v) for 3 h. Seeds of OE At (OE At #1, OE At #2), OE Pa (OE Pa #1, OE Pa #2), OE M3 (OE M3 #1, OE M3 #2) and Co10 (WT) were dibbled together in ^1/2 MS medium (0.5 x MS salt, 1% sucrose and 0.8% agar) in a 24-well plate, and the medium contained different concentrations (0, 31.25, 62.5, 125, 500 and 2000 nM) of mesotrione (Sigma Aldrich, USA) and sulcotrione (Sigma Aldrich, USA). Then, the plate dibbled seeds was placed in the dark at 4° C. for 3 d, and then transferred to a growth chamber at 22° C. (16 h light/8 h dark) for 2 weeks. Three biological replicates were performed per treatment per species. After 2 weeks, the test results were photographed.

Chain of PaHPPD-SDM (Q9I576 whole entry A156V/R282S/E349K): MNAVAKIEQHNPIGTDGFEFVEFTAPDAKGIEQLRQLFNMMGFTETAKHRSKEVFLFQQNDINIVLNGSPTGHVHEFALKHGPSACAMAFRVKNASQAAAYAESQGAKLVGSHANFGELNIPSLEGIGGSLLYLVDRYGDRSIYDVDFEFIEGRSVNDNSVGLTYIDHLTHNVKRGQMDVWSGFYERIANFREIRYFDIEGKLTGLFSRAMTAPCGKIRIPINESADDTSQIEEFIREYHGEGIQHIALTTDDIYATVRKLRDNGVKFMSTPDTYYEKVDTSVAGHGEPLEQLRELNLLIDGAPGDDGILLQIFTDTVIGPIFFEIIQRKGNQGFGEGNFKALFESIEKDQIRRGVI

SMILES	resistance by HPPD activity (%) compared with WT, PaHPPD-M3, PaHPPD-DS18 and PaHPPD-DS73 [1]	concentration giving albino death / severely inhibited growth ([2]; OE At (two lines) and WT)	concentration at which seedlings grow normally ([2]; OE Pa (two lines), T3 seeds)
CS(=O)(=O)c1ccc(C(=O)C2C(=O)CCCC2=O)c(Cl)c1 [sulcotrione]	improved the resistance	31.25 nM	62.5 nM
CS(=O)(=O)c1ccc(C(=O)C2C(=O)CCCC2=O)c(Cl)c1COCC(F)(F)F [tembotrion]	improved the resistance		
